≈ marks a conversion by molar mass, not a printed value. Where a SMILES comes first, the peptide text is derived from it. Bridges are numbered along the chain shown (N, C = ends). Roman numbers before positions name the chains, in order. [ ]: non-standard residue; d: D form. dDab = NCC[C@@H](N)C(=O)O; Nle = CCCC[C@H](N)C(=O)O; Orn = NCCC[C@H](N)C(=O)O; Dab = NCC[C@H](N)C(=O)O; Nva = CCC[C@H](N)C(=O)O; Dap = NC[C@H](N)C(=O)O
Columns and labels:
Assay type in all cases: cell-based
[1] = tested on: human red blood cells (hRBC); experiment: Hemolysis; conditions: red cells of human, 1 h, 200
In short: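 hRBC washed 4× in PBS; 200 μg/mL peptide + 20% (v/v) hRBC, 1 h, 37° C, 300 rpm. Spin, supernatant ~7.5-fold diluted, OD540 blank corrected. % hemolysis = OD540 peptide / OD540 Triton X-100 × 100.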

[2] = tested on: Enterobacter cloacae 848840; conditions: 848840
In short: (§1)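 Visible-growth endpoint after 18-20 h at 35° C defines the MIC (μg/mL). Setup: CLSI broth microdilution, MH-II cation-adjusted broth with P-80 at 0.002% final, inoculum of approximately 10^6 CFU/mL, two-fold serial peptide dilutions.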

[3] = tested on: Pseudomonas aeruginosa ATCC 27853; conditions: ATCC 27853
In short: as §1

[4] = tested on: Klebsiella pneumoniae 968733; conditions: 968733
In short: as §1

[5] = tested on: Escherichia coli 926415; conditions: 926415
In short: as §1

[6] = tested on: Acinetobacter baumannii 872842; conditions: 872842
In short: as §1

[7] = tested on: Escherichia coli ATCC 25922; conditions: ATCC 25922
In short: as §1

[8] = tested on: Klebsiella pneumoniae SSI #3010; conditions: SSI #3010
In short: as §1

[9] = tested on: Acinetobacter baumannii DSM 30008; conditions: DSM 30008
In short: as §1

| Structure (SMILES) | Hemolysis at 200 μg/mL [1] | MIC [2] | Pseudomonas aeruginosa ATCC 27853 MIC [3] | MIC [4] | MIC [5] | MIC [6] | Escherichia coli ATCC 25922 MIC [7] | Klebsiella pneumoniae SSI #3010 MIC [8] | Acinetobacter baumannii DSM 30008 MIC [9] |
| --- | --- | --- | --- | --- | --- | --- | --- | --- | --- |
| CCC[C@@H]1NC(=O)[C@@H](CC(C)C)NC(=O)[C@H](CCN)NC(=O)[C@@H](NC(=O)[C@H](CN)NC(=O)[C@@H](NC(=O)[C@H](CCN)NC(=O)CC[C@@H]2NC(=O)[C@H](CCN)NC(=O)[C@H](Cc3ccc(O)cc3)NC(=O)[C@@H](NC(=O)[C@@H](NC(C)=O)C(C)C)CSSC[C@@H](C(=O)N[C@@H](CO)C(N)=O)NC(=O)[C@H](C(C)C)NC(=O)[C@H](CO)NC(=O)[C@H](Cc3c[nH]c4ccccc34)NC(=O)[C@H](CO)NC(=O)[C@@H](CCN)NC2=O)[C@@H](C)O)CCNC(=O)[C@H]([C@@H](C)O)NC(=O)[C@H](CCN)NC(=O)[C@H](CCN)NC1=O [Ex. 313] (I: Ac-VCY[Dab]E[dDab]SWSVCS-NH2 / II: [Dab]T[Dap][Dab][Dab][dL][Nva][Dab][Dab]T; disulfide I:2-I:11; amide I:5-II:N; lactam II:4-II:C) | <1% | 0.0625 µg/mL (≈ 0.0262 µM) | 0.125 µg/mL | 0.125 µg/mL (≈ 0.0524 µM) | 0.125 µg/mL (≈ 0.0524 µM) | 0.125 µg/mL (≈ 0.0524 µM) | 0.01562 µg/mL | 0.0625 µg/mL | 0.03125 µg/mL |
| CC(=O)N[C@@H](CC(C)C)C(=O)N[C@H]1CSSC[C@@H](C(=O)N[C@@H](CO)C(N)=O)NC(=O)[C@H](C(C)C)NC(=O)[C@H](CO)NC(=O)[C@H](Cc2c[nH]c3ccccc23)NC(=O)[C@H](CO)NC(=O)[C@@H](CCN)NC(=O)[C@H](CCC(=O)N[C@@H](CCN)C(=O)N[C@H](C(=O)N[C@@H](CN)C(=O)N[C@H]2CCNC(=O)[C@H]([C@@H](C)O)NC(=O)[C@H](CCN)NC(=O)[C@H](CCN)NC(=O)[C@H](CC(C)C)NC(=O)[C@@H](CC(C)C)NC(=O)[C@H](CCN)NC2=O)[C@@H](C)O)NC(=O)[C@H](CCN)NC(=O)[C@H](Cc2ccc(O)cc2)NC1=O [Ex. 314] (I: Ac-LCY[Dab]E[dDab]SWSVCS-NH2 / II: [Dab]T[Dap][Dab][Dab][dL]L[Dab][Dab]T; disulfide I:2-I:11; amide I:5-II:N; lactam II:4-II:C) | 2% | 0.125 µg/mL (≈ 0.0518 µM) | 0.25 µg/mL | 0.125 µg/mL (≈ 0.0518 µM) | 0.0625 µg/mL (≈ 0.0259 µM) | 0.0625 µg/mL (≈ 0.0259 µM) | 0.01562 µg/mL | 0.125 µg/mL | 0.01562 µg/mL |
| CC[C@H](C)[C@@H]1NC(=O)[C@H](CO)NC(=O)[C@H](Cc2c[nH]c3ccccc23)NC(=O)[C@H](CO)NC(=O)[C@@H](CCN)NC(=O)[C@H](CCC(=O)N[C@@H](CCN)C(=O)N[C@H](C(=O)N[C@@H](CN)C(=O)N[C@H]2CCNC(=O)[C@H]([C@@H](C)O)NC(=O)[C@H](CCN)NC(=O)[C@H](CCN)NC(=O)[C@H](CC(C)C)NC(=O)[C@@H](CC(C)C)NC(=O)[C@H](CCN)NC2=O)[C@@H](C)O)NC(=O)[C@H](CCN)NC(=O)[C@H](Cc2ccc(O)cc2)NC(=O)[C@@H](NC(=O)[C@@H](NC(C)=O)C(C)C)CSSC[C@@H](C(=O)N[C@@H](CO)C(N)=O)NC1=O [Ex. 315] (I: Ac-VCY[Dab]E[dDab]SWSICS-NH2 / II: [Dab]T[Dap][Dab][Dab][dL]L[Dab][Dab]T; disulfide I:2-I:11; amide I:5-II:N; lactam II:4-II:C) | 2% | 0.125 µg/mL (≈ 0.0518 µM) | 0.0625 µg/mL | 0.0625 µg/mL (≈ 0.0259 µM) | 0.0625 µg/mL (≈ 0.0259 µM) | 0.0625 µg/mL (≈ 0.0259 µM) | 0.01562 µg/mL | 0.0625 µg/mL | 0.01562 µg/mL |
| CCCC[C@@H]1NC(=O)[C@H](CO)NC(=O)[C@H](Cc2c[nH]c3ccccc23)NC(=O)[C@H](CO)NC(=O)[C@@H](CCN)NC(=O)[C@H](CCC(=O)N[C@@H](CCN)C(=O)N[C@H](C(=O)N[C@@H](CN)C(=O)N[C@H]2CCNC(=O)[C@H]([C@@H](C)O)NC(=O)[C@H](CCN)NC(=O)[C@H](CCN)NC(=O)[C@H](CC(C)C)NC(=O)[C@@H](CC(C)C)NC(=O)[C@H](CCN)NC2=O)[C@@H](C)O)NC(=O)[C@H](CCN)NC(=O)[C@H](Cc2ccc(O)cc2)NC(=O)[C@@H](NC(=O)[C@@H](NC(C)=O)C(C)C)CSSC[C@@H](C(=O)N[C@@H](CO)C(N)=O)NC1=O [Ex. 316] (I: Ac-VCY[Dab]E[dDab]SWS[Nle]CS-NH2 / II: [Dab]T[Dap][Dab][Dab][dL]L[Dab][Dab]T; disulfide I:2-I:11; amide I:5-II:N; lactam II:4-II:C) | <1% | 0.0625 µg/mL (≈ 0.0259 µM) | 0.0625 µg/mL | 0.0625 µg/mL (≈ 0.0259 µM) | 0.0625 µg/mL (≈ 0.0259 µM) | 0.03125 µg/mL (≈ 0.013 µM) | 0.01562 µg/mL | 0.0625 µg/mL | 0.01562 µg/mL |
| CC(=O)N[C@H](C(=O)N[C@H]1CCCNC(=O)C[C@@H](C(=O)N[C@@H](CO)C(N)=O)NC(=O)[C@H](C(C)C)NC(=O)[C@H](CO)NC(=O)[C@H](Cc2c[nH]c3ccccc23)NC(=O)[C@H](CO)NC(=O)[C@@H](CCN)NC(=O)[C@H](CCC(=O)N[C@@H](CCN)C(=O)N[C@H](C(=O)N[C@@H](CN)C(=O)N[C@H]2CCNC(=O)[C@H]([C@@H](C)O)NC(=O)[C@H](CCN)NC(=O)[C@H](CCN)NC(=O)[C@H](CC(C)C)NC(=O)[C@@H](CC(C)C)NC(=O)[C@H](CCN)NC2=O)[C@@H](C)O)NC(=O)[C@H](CCN)NC(=O)[C@H](Cc2ccc(O)cc2)NC1=O)C(C)C [Ex. 319] (I: Ac-V[Orn]Y[Dab]E[dDab]SWSVDS-NH2 / II: [Dab]T[Dap][Dab][Dab][dL]L[Dab][Dab]T; lactam I:2-I:11, II:4-II:C; amide I:5-II:N) | <1% | 1 µg/mL (≈ 0.416 µM) | 0.125 µg/mL | 4 µg/mL (≈ 1.66 µM) | 1 µg/mL (≈ 0.416 µM) | 0.5 µg/mL (≈ 0.208 µM) | 0.0625 µg/mL | 0.25 µg/mL | 0.125 µg/mL |
| CC(=O)N[C@H](C(=O)N[C@H]1CNC(=O)CC[C@@H](C(=O)N[C@@H](CO)C(N)=O)NC(=O)[C@H](C(C)C)NC(=O)[C@H](CO)NC(=O)[C@H](Cc2c[nH]c3ccccc23)NC(=O)[C@H](CO)NC(=O)[C@@H](CCN)NC(=O)[C@H](CCC(=O)N[C@@H](CCN)C(=O)N[C@H](C(=O)N[C@@H](CN)C(=O)N[C@H]2CCNC(=O)[C@H]([C@@H](C)O)NC(=O)[C@H](CCN)NC(=O)[C@H](CCN)NC(=O)[C@H](CC(C)C)NC(=O)[C@@H](CC(C)C)NC(=O)[C@H](CCN)NC2=O)[C@@H](C)O)NC(=O)[C@H](CCN)NC(=O)[C@H](Cc2ccc(O)cc2)NC1=O)C(C)C [Ex. 320] (I: Ac-V[Dap]Y[Dab]E[dDab]SWSVES-NH2 / II: [Dab]T[Dap][Dab][Dab][dL]L[Dab][Dab]T; lactam I:2-I:11, II:4-II:C; amide I:5-II:N) | <1% | 2 µg/mL (≈ 0.836 µM) | 0.25 µg/mL | 8 µg/mL (≈ 3.34 µM) | 4 µg/mL (≈ 1.67 µM) | 1 µg/mL (≈ 0.418 µM) | 0.0625 µg/mL | 0.125 µg/mL | 0.5 µg/mL |
| CC(=O)N[C@H](C(=O)N[C@H]1CCNC(=O)CC[C@@H](C(=O)N[C@@H](CO)C(N)=O)NC(=O)[C@H](C(C)C)NC(=O)[C@H](CO)NC(=O)[C@H](Cc2c[nH]c3ccccc23)NC(=O)[C@H](CO)NC(=O)[C@@H](CCN)NC(=O)[C@H](CCC(=O)N[C@@H](CCN)C(=O)N[C@H](C(=O)N[C@@H](CCN)C(=O)N[C@H]2CCNC(=O)[C@H]([C@@H](C)O)NC(=O)[C@H](CCN)NC(=O)[C@H](CCN)NC(=O)[C@H](CC(C)C)NC(=O)[C@@H](CC(C)C)NC(=O)[C@H](CCN)NC2=O)[C@@H](C)O)NC(=O)[C@H](CCN)NC(=O)[C@H](Cc2ccc(O)cc2)NC1=O)C(C)C [Ex. 321] (I: Ac-V[Dab]Y[Dab]E[dDab]SWSVES-NH2 / II: [Dab]T[Dab][Dab][Dab][dL]L[Dab][Dab]T; lactam I:2-I:11, II:4-II:C; amide I:5-II:N) | 0% | 0.25 µg/mL (≈ 0.103 µM) | 0.125 µg/mL | 1 µg/mL (≈ 0.413 µM) | 0.5 µg/mL (≈ 0.207 µM) | 0.25 µg/mL (≈ 0.103 µM) | 0.0625 µg/mL | 0.125 µg/mL | 0.125 µg/mL |
